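The compound was tested at five concentrations on cells cultured in 96-well plates, with a 48-hour exposure period. GI50 is the concentration that inhibits growth by half. TGI: total growth inhibition.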
Experiments:
Assay in all cases: growth of human tumour cells (NCI), 48 h
K-562 leukemia = tested on: K-562 leukemia
NCI-H460 lung = tested on: NCI-H460 lung
NCI-H522 lung = tested on: NCI-H522 lung
SNB-19 CNS = tested on: SNB-19 CNS
SN12C renal = tested on: SN12C renal
HOP-92 NSCLC = tested on: HOP-92 NSCLC
CCRF-CEM leukemia = tested on: CCRF-CEM leukemia
DU-145 prostate = tested on: DU-145 prostate
OVCAR-8 ovarian = tested on: OVCAR-8 ovarian
A549 NSCLC = tested on: A549 NSCLC
SR leukemia = tested on: SR leukemia
UO-31 renal = tested on: UO-31 renal
SK-MEL-28 melanoma = tested on: SK-MEL-28 melanoma
SW-620 colon = tested on: SW-620 colon
MCF7 breast = tested on: MCF7 breast
TK-10 renal = tested on: TK-10 renal
NCI-H226 lung = tested on: NCI-H226 lung
MDA-MB-231 breast = tested on: MDA-MB-231 breast
NCI-H23 lung = tested on: NCI-H23 lung
OVCAR-5 ovarian = tested on: OVCAR-5 ovarian
OVCAR-3 ovarian = tested on: OVCAR-3 ovarian
MALME-3M melanoma = tested on: MALME-3M melanoma
OVCAR-4 ovarian = tested on: OVCAR-4 ovarian
ACHN renal = tested on: ACHN renal
MOLT-4 leukemia = tested on: MOLT-4 leukemia
SNB-75 CNS = tested on: SNB-75 CNS
HT29 colon = tested on: HT29 colon
T-47D breast = tested on: T-47D breast
PC-3 prostate = tested on: PC-3 prostate
RXF 393 renal = tested on: RXF 393 renal
KM12 colon = tested on: KM12 colon
SK-MEL-2 melanoma = tested on: SK-MEL-2 melanoma
HCT-116 colon = tested on: HCT-116 colon
MDA-MB-435 = tested on: MDA-MB-435
786-0 renal = tested on: 786-0 renal
HL-60(TB) leukemia = tested on: HL-60(TB) leukemia
SF-268 CNS = tested on: SF-268 CNS
IGROV1 ovarian = tested on: IGROV1 ovarian
UACC-257 melanoma = tested on: UACC-257 melanoma
M14 melanoma = tested on: M14 melanoma
COLO 205 colon = tested on: COLO 205 colon
HOP-62 NSCLC = tested on: HOP-62 NSCLC
NCI/ADR-RES ovarian = tested on: NCI/ADR-RES ovarian
LOX IMVI melanoma = tested on: LOX IMVI melanoma
BT-549 breast = tested on: BT-549 breast
EKVX NSCLC = tested on: EKVX NSCLC
U251 CNS = tested on: U251 CNS
HS 578T breast = tested on: HS 578T breast
RPMI-8226 leukemia = tested on: RPMI-8226 leukemia
SF-539 CNS = tested on: SF-539 CNS
SF-295 CNS = tested on: SF-295 CNS
UACC-62 melanoma = tested on: UACC-62 melanoma
SK-MEL-5 melanoma = tested on: SK-MEL-5 melanoma
A498 renal = tested on: A498 renal
HCT-15 colon = tested on: HCT-15 colon
HCC-2998 colon = tested on: HCC-2998 colon
CAKI-1 renal = tested on: CAKI-1 renal
SK-OV-3 ovarian = tested on: SK-OV-3 ovarian

## COC(=O)CCC1=C(C)C(C)=N/C1=C\c1[nH]c(-c2ccc[nH]2)cc1OC
K-562 leukemia
  GI50: 462 nM
  TGI: 24200 nM
NCI-H460 lung
  GI50: 490 nM
  TGI: 12100 nM
NCI-H522 lung
  GI50: 515 nM
  TGI: 1910 nM
SNB-19 CNS
  GI50: 1890 nM
  TGI: 17000 nM
SN12C renal
  GI50: 805 nM
  TGI: 14300 nM
HOP-92 NSCLC
  GI50: 211 nM
  TGI: 649 nM
CCRF-CEM leukemia
  GI50: 403 nM
  TGI: 13600 nM
DU-145 prostate
  GI50: 880 nM
  TGI: 14900 nM
OVCAR-8 ovarian
  GI50: 334 nM
  TGI: 12400 nM
A549 NSCLC
  GI50: 368 nM
  TGI: 10200 nM
SR leukemia
  GI50: 352 nM
UO-31 renal
  GI50: 479 nM
  TGI: 2550 nM
SK-MEL-28 melanoma
  GI50: 1850 nM
  TGI: 8470 nM
SW-620 colon
  GI50: 385 nM
  TGI: 11900 nM
MCF7 breast
  GI50: 297 nM
  TGI: 2790 nM
TK-10 renal
  GI50: 930 nM
  TGI: 10100 nM
NCI-H226 lung
  GI50: 313 nM
  TGI: 1800 nM
MDA-MB-231 breast
  GI50: 228 nM
  TGI: 2090 nM
NCI-H23 lung
  GI50: 805 nM
  TGI: 11400 nM
OVCAR-5 ovarian
  GI50: 490 nM
  TGI: 12200 nM
OVCAR-3 ovarian
  GI50: 478 nM
  TGI: 2410 nM
MALME-3M melanoma
  GI50: 2010 nM
  TGI: 7090 nM
OVCAR-4 ovarian
  GI50: 371 nM
  TGI: 7460 nM
ACHN renal
  GI50: 410 nM
  TGI: 2760 nM
MOLT-4 leukemia
  GI50: 567 nM
  TGI: 16400 nM
SNB-75 CNS
  GI50: 434 nM
  TGI: 3620 nM
HT29 colon
  GI50: 277 nM
  TGI: 3850 nM
T-47D breast
  GI50: 329 nM
  TGI: 3420 nM
PC-3 prostate
  GI50: 633 nM
  TGI: 14400 nM
RXF 393 renal
  GI50: 242 nM
  TGI: 1060 nM
KM12 colon
  GI50: 393 nM
  TGI: 6390 nM
SK-MEL-2 melanoma
  GI50: 363 nM
  TGI: 1210 nM
HCT-116 colon
  GI50: 326 nM
  TGI: 1260 nM
MDA-MB-435
  GI50: 472 nM
  TGI: 5340 nM
786-0 renal
  GI50: 456 nM
  TGI: 2950 nM
HL-60(TB) leukemia
  GI50: 567 nM
  TGI: 3340 nM
SF-268 CNS
  GI50: 935 nM
  TGI: 16200 nM
IGROV1 ovarian
  GI50: 1060 nM
  TGI: 17400 nM
UACC-257 melanoma
  GI50: 1440 nM
  TGI: 9860 nM
M14 melanoma
  GI50: 548 nM
  TGI: 12200 nM
COLO 205 colon
  GI50: 394 nM
  TGI: 1480 nM
HOP-62 NSCLC
  GI50: 471 nM
  TGI: 1720 nM
NCI/ADR-RES ovarian
  GI50: 476 nM
  TGI: 13200 nM
LOX IMVI melanoma
  GI50: 221 nM
  TGI: 609 nM
BT-549 breast
  GI50: 621 nM
  TGI: 13400 nM
EKVX NSCLC
  GI50: 712 nM
  TGI: 14300 nM
U251 CNS
  GI50: 419 nM
  TGI: 2870 nM
HS 578T breast
  GI50: 1060 nM
  TGI: 8150 nM
RPMI-8226 leukemia
  GI50: 356 nM
  TGI: 1920 nM
SF-539 CNS
  GI50: 639 nM
  TGI: 6380 nM
SF-295 CNS
  GI50: 724 nM
  TGI: 4280 nM
UACC-62 melanoma
  GI50: 365 nM
  TGI: 1260 nM
SK-MEL-5 melanoma
  GI50: 145 nM
  TGI: 315 nM
A498 renal
  GI50: 3350 nM
  TGI: 15800 nM
HCT-15 colon
  GI50: 262 nM
  TGI: 3150 nM
HCC-2998 colon
  GI50: 464 nM
  TGI: 14600 nM
CAKI-1 renal
  GI50: 338 nM
  TGI: 6360 nM
SK-OV-3 ovarian
  GI50: 2820 nM
  TGI: 15900 nM

From PubChem BioAssay (NCI)
